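Method: 48-hour compound exposure of cells in 96-well plates, five concentrations, linear interpolation of endpoints. GI50 is the concentration that inhibits growth by half. TGI marks complete inhibition of growth.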
Tests used:
Experiment in all cases: DTP human tumour cell line panel, 48 h
NCI-H460 lung = system: NCI-H460 lung
KM12 colon = system: KM12 colon
OVCAR-5 ovarian = system: OVCAR-5 ovarian
ACHN renal = system: ACHN renal
NCI-H522 lung = system: NCI-H522 lung
RPMI-8226 leukemia = system: RPMI-8226 leukemia
SF-295 CNS = system: SF-295 CNS
DU-145 prostate = system: DU-145 prostate
UO-31 renal = system: UO-31 renal
SNB-19 CNS = system: SNB-19 CNS
BT-549 breast = system: BT-549 breast
NCI-H23 lung = system: NCI-H23 lung
MDA-MB-435 = system: MDA-MB-435
SK-MEL-28 melanoma = system: SK-MEL-28 melanoma
NCI-H226 lung = system: NCI-H226 lung
PC-3 prostate = system: PC-3 prostate
SK-MEL-5 melanoma = system: SK-MEL-5 melanoma
HOP-62 NSCLC = system: HOP-62 NSCLC
MDA-MB-231 breast = system: MDA-MB-231 breast
SF-268 CNS = system: SF-268 CNS
SN12C renal = system: SN12C renal
T-47D breast = system: T-47D breast
SW-620 colon = system: SW-620 colon
TK-10 renal = system: TK-10 renal
CCRF-CEM leukemia = system: CCRF-CEM leukemia
COLO 205 colon = system: COLO 205 colon
HS 578T breast = system: HS 578T breast
HCT-15 colon = system: HCT-15 colon
RXF 393 renal = system: RXF 393 renal
UACC-62 melanoma = system: UACC-62 melanoma
786-0 renal = system: 786-0 renal
K-562 leukemia = system: K-562 leukemia
A549 NSCLC = system: A549 NSCLC
SR leukemia = system: SR leukemia
EKVX NSCLC = system: EKVX NSCLC
OVCAR-8 ovarian = system: OVCAR-8 ovarian
IGROV1 ovarian = system: IGROV1 ovarian
MOLT-4 leukemia = system: MOLT-4 leukemia
M14 melanoma = system: M14 melanoma
LOX IMVI melanoma = system: LOX IMVI melanoma
MCF7 breast = system: MCF7 breast
NCI/ADR-RES ovarian = system: NCI/ADR-RES ovarian
SK-MEL-2 melanoma = system: SK-MEL-2 melanoma
U251 CNS = system: U251 CNS
SK-OV-3 ovarian = system: SK-OV-3 ovarian
MALME-3M melanoma = system: MALME-3M melanoma
CAKI-1 renal = system: CAKI-1 renal
HCT-116 colon = system: HCT-116 colon
HT29 colon = system: HT29 colon
OVCAR-4 ovarian = system: OVCAR-4 ovarian
OVCAR-3 ovarian = system: OVCAR-3 ovarian

O=C1C(Cl)=C(Nc2cccc(O)c2)C(=O)N1c1cccc(Cl)c1
GI50 (NCI-H460 lung): 48.5 µM | TGI (NCI-H460 lung): > 100 µM | GI50 (KM12 colon): 68.2 µM | TGI (KM12 colon): > 100 µM | GI50 (OVCAR-5 ovarian): 62.5 µM | TGI (OVCAR-5 ovarian): > 100 µM | GI50 (ACHN renal): 85.4 µM | TGI (ACHN renal): > 100 µM | GI50 (NCI-H522 lung): 16.6 µM | TGI (NCI-H522 lung): 36.3 µM | GI50 (RPMI-8226 leukemia): 12.8 µM | TGI (RPMI-8226 leukemia): 34.3 µM | GI50 (SF-295 CNS): 61.6 µM | TGI (SF-295 CNS): > 100 µM | GI50 (DU-145 prostate): 69.5 µM | TGI (DU-145 prostate): > 100 µM | GI50 (UO-31 renal): 75.8 µM | TGI (UO-31 renal): > 100 µM | GI50 (SNB-19 CNS): 71.5 µM | TGI (SNB-19 CNS): > 100 µM | GI50 (BT-549 breast): 27.3 µM | TGI (BT-549 breast): > 100 µM | GI50 (NCI-H23 lung): 37.7 µM | TGI (NCI-H23 lung): > 100 µM | GI50 (MDA-MB-435): 43 µM | TGI (MDA-MB-435): > 100 µM | GI50 (SK-MEL-28 melanoma): 85.7 µM | TGI (SK-MEL-28 melanoma): > 100 µM | GI50 (NCI-H226 lung): 26 µM | TGI (NCI-H226 lung): 76.9 µM | GI50 (PC-3 prostate): 21.4 µM | TGI (PC-3 prostate): > 100 µM | GI50 (SK-MEL-5 melanoma): 50.4 µM | TGI (SK-MEL-5 melanoma): > 100 µM | GI50 (HOP-62 NSCLC): 52.7 µM | TGI (HOP-62 NSCLC): > 100 µM | GI50 (MDA-MB-231 breast): 35.8 µM | TGI (MDA-MB-231 breast): > 100 µM | GI50 (SF-268 CNS): 28.8 µM | TGI (SF-268 CNS): > 100 µM | GI50 (SN12C renal): 21.9 µM | TGI (SN12C renal): 59.8 µM | GI50 (T-47D breast): 67.2 µM | TGI (T-47D breast): > 100 µM | GI50 (SW-620 colon): 39 µM | TGI (SW-620 colon): > 100 µM | GI50 (TK-10 renal): > 100 µM | TGI (TK-10 renal): > 100 µM | GI50 (CCRF-CEM leukemia): 10.7 µM | TGI (CCRF-CEM leukemia): 31.8 µM | GI50 (COLO 205 colon): 56.5 µM | TGI (COLO 205 colon): > 100 µM | GI50 (HS 578T breast): 29.3 µM | TGI (HS 578T breast): > 100 µM | GI50 (HCT-15 colon): 39.1 µM | TGI (HCT-15 colon): > 100 µM | GI50 (RXF 393 renal): 25.5 µM | TGI (RXF 393 renal): > 100 µM | GI50 (UACC-62 melanoma): 27 µM | TGI (UACC-62 melanoma): > 100 µM | GI50 (786-0 renal): 57.8 µM | TGI (786-0 renal): > 100 µM | GI50 (K-562 leukemia): 29.8 µM | TGI (K-562 leukemia): 79 µM | GI50 (A549 NSCLC): 81.1 µM | TGI (A549 NSCLC): > 100 µM | GI50 (SR leukemia): 27 µM | TGI (SR leukemia): > 100 µM | GI50 (EKVX NSCLC): > 100 µM | TGI (EKVX NSCLC): > 100 µM | GI50 (OVCAR-8 ovarian): 27.2 µM | TGI (OVCAR-8 ovarian): > 100 µM | GI50 (IGROV1 ovarian): 18.3 µM | TGI (IGROV1 ovarian): 51.4 µM | GI50 (MOLT-4 leukemia): 23 µM | TGI (MOLT-4 leukemia): 71.4 µM | GI50 (M14 melanoma): 28.8 µM | TGI (M14 melanoma): > 100 µM | GI50 (LOX IMVI melanoma): 22.4 µM | TGI (LOX IMVI melanoma): 51.1 µM | GI50 (MCF7 breast): 36 µM | TGI (MCF7 breast): > 100 µM | GI50 (NCI/ADR-RES ovarian): 64.1 µM | TGI (NCI/ADR-RES ovarian): > 100 µM | GI50 (SK-MEL-2 melanoma): 34.7 µM | TGI (SK-MEL-2 melanoma): > 100 µM | GI50 (U251 CNS): 57.7 µM | TGI (U251 CNS): > 100 µM | GI50 (SK-OV-3 ovarian): 56.5 µM | TGI (SK-OV-3 ovarian): > 100 µM | GI50 (MALME-3M melanoma): 51.7 µM | TGI (MALME-3M melanoma): > 100 µM | GI50 (CAKI-1 renal): 49.9 µM | TGI (CAKI-1 renal): > 100 µM | GI50 (HCT-116 colon): 21.7 µM | TGI (HCT-116 colon): > 100 µM | GI50 (HT29 colon): 37.3 µM | TGI (HT29 colon): > 100 µM | GI50 (OVCAR-4 ovarian): 50.6 µM | TGI (OVCAR-4 ovarian): > 100 µM | GI50 (OVCAR-3 ovarian): 22.3 µM | TGI (OVCAR-3 ovarian): 64.1 µM

From PubChem BioAssay (NCI)
